Measurements: patent US8598122B2, “Antagonistic peptides for frizzled-1 and frizzled-2” (Universiteit Maastricht, priority 2009, dated 2013)
“Also recorded” adds a separate entry of the source. Where a SMILES comes first, the peptide text is derived from it.

What was measured:
mouse Fzd-1 = molecular target: T1, mouse Fzd-1 (Mus musculus, UniProt O70421); assay: Antagonism of Wnt3a activation of mouse Fzd-1 (data not shown); assay type: cell-based
T1 construct: expressed in transfected cells
Excerpt: (§1) In FIG. 3, Panel E, the efficacy of UM206 to block the Wnt3a-induced activation of luciferase activity in HEK293 superTOPflash cells transfected with different Fzds is shown.

[1] = tested on: canonical Wnt/Fzd-1/2 signaling; assay: TOPflash experiments in CHO and COS-7 cells overexpressing rFzd-1 or -2; assay type: cell-based
Excerpt: (§2) Three areas of high homology that contained two cysteines are underlined (UM207), (UM208) and (UM206). In FIGS. 9B through 9D, the inhibitory effect of these three peptides on Wnt3a-induced luciferase activity in HEK293-superTOPflash is shown. […] Again, the peptides by themselves had no effect on the luciferase activity.
For the luciferase experiments not in HEK cells, the cells were additionally transfected with a TOPflash construct, eight TCF/LEF binding sites cloned into the pTA-Luc vector. Luciferase activity was measured using luciferase assay system (Promega, Madison Wis., USA).

[2] = tested on: Wnt/Fzd signal transduction cascade; assay: Luciferase activity in HEK293-superTOPflash cells (Wnt/Fzd signal transduction cascade); assay type: cell-based, human; conditions: without Wnt3a
Excerpt: (§3) Human embryonic kidney (HEK) cells were used for screening. These cells have a luciferase construct stably transfected into the genome (see FIG. 2A), such that when the frizzled receptor is activated and β-catenin is increased, the luciferase is activated by transcription and light can be measured.
as §2

kidney = assay: qPCR of Wnt target genes in kidney after long-term UM206 administration; assay type: in vivo, mice; set-up: key to Rel. exp. Col I / Rel. exp. DDK 2 / Rel. exp. DDK 3 / Rel. exp. Twist: expression normalized to cyclophilin housekeeping gene; key to Rel. exp. α-SMA / Rel. exp. DDK 1 / Rel. exp. α-actin / Rel. exp. LEF / Rel. exp. FN: relative expression, cyclophilin as housekeeping gene
Excerpt: RNA was isolated using the Trizol method (Invitrogen). For the RT-PCR, the RNA was transcribed to cDNA with iscript™ cDNA synthesis kit (Bio-Rad, Hercules Calif., USA), Syber green (Eurogentec, Ghent, Belgium) was used for the detection of cDNA levels and cyclophilin served as the house keeping gene. In Supplementary methods panel 5, the primer sequences are shown.

frizzled-1 (rFzd-1) = molecular target: T2, frizzled-1 (rFzd-1) (Rattus norvegicus, UniProt Q08463); assay: Activity assay: Wnt3a-induced luciferase (superTOPflash) in HEK cells transfected with frizzled-1; assay type: cell-based; conditions: peptide 1.10^−8 M
T2 construct: expressed in transfected cells; host or cells: HEK293 superTOPflash (human embryonic kidney), transient, pcDNA3.1/hygro
Method: as §3
(§4) The peptides were tested by transfecting the frizzled-1 or the frizzled-2 receptor and addition of UM206(S-S) to the cell culture. For testing antagonistic activity, UM206 was added and the natural ligand Wnt3a was added, which is a natural stimulus for the canonical pathway.
(§5) Day 2: Transfection 12-well plates • heat Fugene6 and DNA 15 minutes at RT • 2 ml serum-free medium in tube • add 3μl fugene • add 2 μg DNA • incubate 30 minutes at RT • wash with PBS • add 50 μtransfectiemix • add 1 ml antibiotica-free medium
(§6) Day 3: Add conditioned medium or UM206
(§7) Day 4: Luciferase activity measurements • remove medium • wash with PBS • add 500 μl ⅕ lysisbuffer • shake for 60 minutes • centrifuge in tube • 20 μl lysaat and 50 μl luciferase in new tube for measurement • vortex • measure
(§8) To determine the inhibitory constant of UM206-8, HEK293-superTOPflash cells were transfected with either rFzd-1 or -2 and incubated with Wnt3a (10^−9M) in the presence of increasing concentrations of either of the peptides (FIG. 15). For UM206, a biphasic inhibition curve was observed that was best fitted with a two-binding-state model.
(§9) The cell lines were cultured in 75 cm^2 culture flasks (Corning, Schiphol, the Netherlands) in Dulbeco's modified essential medium with L-glutamine (2 mM), 10% fetal calf serum (Invitrogen, Merelbeke, Belgium), and 1% gentamycin (Sigma-Aldrich, Zwijndrecht, The Netherlands). Before starting the experiment, the cell lines were treated with plasmocin 25 μg/ml (Invivogen, Toulose, France) and tested with a mycoalert mycoplasma detection kit (Lonza, Rockland Me., USA). Cells were transiently transfected with Fugene6 (Roche, Indianapolis Ind., USA) with plasmid DNA, pcDNA3.1/hygro (Invitrogen) with frizzled-1/2/4 or Wnts 3a-5a or with pcDNA3.0 (Invitrogen) containing the β-catenin or frizzled-5 sequence. After transfection, the cells were cultured for 24 hours in conditioned medium, collected from the cultured L-cells, L-cells with Wnt3a or 5a (Invitrogen). At the same moment the antagonist was added.

Pharmacokinetics in rats = assay type: in vivo
frizzled-2 (rFzd-2) = molecular target: T3, frizzled-2 (rFzd-2) (Rattus norvegicus, UniProt Q08464); assay: Activity assay: Wnt3a-induced luciferase (superTOPflash) in HEK cells transfected with frizzled-2; assay type: cell-based
T3 construct: expressed in transfected cells; host or cells: HEK293 superTOPflash (human embryonic kidney), transient, pcDNA3.1/hygro
Method: as §3, §4, §5, §6, §7, §8, §9

human Fzd-1 = molecular target: T4, human Fzd-1 (Homo sapiens, UniProt Q9UP38); assay: Antagonism of Wnt3a activation of human Fzd-1 (data not shown); assay type: cell-based
T4 construct: expressed in transfected cells
Excerpt: as §1

129S6 mice = assay: Infarct rupture in 129S6 mice; assay type: in vivo; conditions: infarct rupture frequency ˜60%, unpublished observations
Excerpt: Because of the lack of pharmacological tools to intervene in Wnt/Fzd signaling in vivo, only genetic interventions have been reported so far in studies on the role of Wnt signaling in infarct healing. Barandon et al. were the first to show a beneficial effect of overexpression on infarct healing of FrzA, a bovine homologue of soluble frizzled-related protein-1 (sFRP1). They observed a decreased infarct size with elevated numbers of myofibroblasts and increased angiogenesis in the infarcted FrzA transgenic mice (Barandon et al., 2003), which could be confirmed in the present study using an Fzd-1 and -2 antagonist. […] In the mean time, the beneficial effects of sFRP overexpression on infarct healing have been confirmed by Kobayashi et al. (Kobayashi et al., 2009). Taken together, these reports support the observations of the present study and point to a beneficial effect of inhibiting Wnt/Fzd signaling on the wound-healing process after MI.

hFzd-5 = molecular target: T5, hFzd-5 (Homo sapiens, UniProt Q13467); assay: Luciferase activity in HEK293 superTOPflash cells overexpressing hFzd-5; assay type: cell-based; conditions: 1.10^−8 M
T5 construct: expressed in transfected cells; host or cells: HEK293 superTOPflash, transient, pcDNA3.0
Method: as §1, §9

T3 sequence (Q08464 29-570): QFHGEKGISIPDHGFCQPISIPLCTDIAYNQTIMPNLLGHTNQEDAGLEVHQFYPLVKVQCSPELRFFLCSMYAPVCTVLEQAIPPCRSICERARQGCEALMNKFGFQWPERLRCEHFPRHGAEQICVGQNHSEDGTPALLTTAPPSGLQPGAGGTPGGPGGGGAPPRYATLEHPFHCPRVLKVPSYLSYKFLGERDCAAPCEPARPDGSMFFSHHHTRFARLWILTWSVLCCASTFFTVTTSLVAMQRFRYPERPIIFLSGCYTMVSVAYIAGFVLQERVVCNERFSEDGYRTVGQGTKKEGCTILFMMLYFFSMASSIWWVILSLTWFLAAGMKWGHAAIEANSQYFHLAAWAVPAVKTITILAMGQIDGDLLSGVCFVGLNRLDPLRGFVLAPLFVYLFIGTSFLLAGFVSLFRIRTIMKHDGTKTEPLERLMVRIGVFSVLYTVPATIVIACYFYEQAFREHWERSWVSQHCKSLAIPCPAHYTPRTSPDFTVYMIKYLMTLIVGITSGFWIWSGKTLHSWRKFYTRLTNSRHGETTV
T2 sequence (Q08463 69-641): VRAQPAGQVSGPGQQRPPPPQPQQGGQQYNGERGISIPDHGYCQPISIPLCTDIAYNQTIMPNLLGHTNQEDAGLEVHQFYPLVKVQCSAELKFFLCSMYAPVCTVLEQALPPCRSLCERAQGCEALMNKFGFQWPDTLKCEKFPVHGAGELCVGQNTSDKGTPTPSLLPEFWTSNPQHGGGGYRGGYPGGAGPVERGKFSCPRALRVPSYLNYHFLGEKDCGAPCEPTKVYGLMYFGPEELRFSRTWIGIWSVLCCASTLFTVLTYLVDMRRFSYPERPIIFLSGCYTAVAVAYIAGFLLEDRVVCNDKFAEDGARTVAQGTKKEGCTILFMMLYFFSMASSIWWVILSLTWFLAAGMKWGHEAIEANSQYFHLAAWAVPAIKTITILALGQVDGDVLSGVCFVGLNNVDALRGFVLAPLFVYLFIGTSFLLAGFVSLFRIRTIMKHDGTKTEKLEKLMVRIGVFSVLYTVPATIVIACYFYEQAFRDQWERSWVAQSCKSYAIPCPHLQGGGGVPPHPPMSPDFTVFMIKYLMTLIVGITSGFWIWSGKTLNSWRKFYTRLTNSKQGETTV
T4 sequence (Q9UP38 70-647): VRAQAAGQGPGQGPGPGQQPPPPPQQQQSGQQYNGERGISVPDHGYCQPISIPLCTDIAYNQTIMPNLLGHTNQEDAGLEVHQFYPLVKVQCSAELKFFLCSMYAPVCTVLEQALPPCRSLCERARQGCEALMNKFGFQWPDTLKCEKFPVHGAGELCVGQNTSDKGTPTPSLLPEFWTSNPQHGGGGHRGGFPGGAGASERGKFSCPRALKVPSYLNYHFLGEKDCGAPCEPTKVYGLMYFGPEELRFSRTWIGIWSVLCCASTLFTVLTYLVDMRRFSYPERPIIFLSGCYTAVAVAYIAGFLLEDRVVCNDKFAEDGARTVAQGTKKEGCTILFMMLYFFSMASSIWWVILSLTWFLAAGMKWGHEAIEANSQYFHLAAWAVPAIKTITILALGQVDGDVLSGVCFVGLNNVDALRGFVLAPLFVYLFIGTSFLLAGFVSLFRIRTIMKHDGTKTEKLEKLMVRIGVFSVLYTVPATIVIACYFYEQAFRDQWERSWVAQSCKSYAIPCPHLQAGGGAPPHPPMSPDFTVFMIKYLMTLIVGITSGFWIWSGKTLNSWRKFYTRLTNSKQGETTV
T1 sequence (O70421 69-642): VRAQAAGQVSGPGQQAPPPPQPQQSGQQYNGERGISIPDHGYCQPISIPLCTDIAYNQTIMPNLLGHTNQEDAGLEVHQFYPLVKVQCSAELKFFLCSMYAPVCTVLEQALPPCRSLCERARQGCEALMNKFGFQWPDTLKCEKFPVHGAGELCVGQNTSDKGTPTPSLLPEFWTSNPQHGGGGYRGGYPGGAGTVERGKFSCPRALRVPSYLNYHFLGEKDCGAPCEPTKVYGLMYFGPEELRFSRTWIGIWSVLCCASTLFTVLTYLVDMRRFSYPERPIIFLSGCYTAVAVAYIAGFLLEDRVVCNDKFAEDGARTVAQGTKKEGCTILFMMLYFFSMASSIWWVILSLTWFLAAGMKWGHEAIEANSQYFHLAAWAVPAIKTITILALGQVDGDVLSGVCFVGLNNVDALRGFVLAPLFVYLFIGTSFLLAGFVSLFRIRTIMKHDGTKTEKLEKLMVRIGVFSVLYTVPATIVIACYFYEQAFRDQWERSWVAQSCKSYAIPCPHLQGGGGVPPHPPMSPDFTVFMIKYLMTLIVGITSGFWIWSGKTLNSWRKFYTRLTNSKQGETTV
T5 sequence (Q13467 27-585): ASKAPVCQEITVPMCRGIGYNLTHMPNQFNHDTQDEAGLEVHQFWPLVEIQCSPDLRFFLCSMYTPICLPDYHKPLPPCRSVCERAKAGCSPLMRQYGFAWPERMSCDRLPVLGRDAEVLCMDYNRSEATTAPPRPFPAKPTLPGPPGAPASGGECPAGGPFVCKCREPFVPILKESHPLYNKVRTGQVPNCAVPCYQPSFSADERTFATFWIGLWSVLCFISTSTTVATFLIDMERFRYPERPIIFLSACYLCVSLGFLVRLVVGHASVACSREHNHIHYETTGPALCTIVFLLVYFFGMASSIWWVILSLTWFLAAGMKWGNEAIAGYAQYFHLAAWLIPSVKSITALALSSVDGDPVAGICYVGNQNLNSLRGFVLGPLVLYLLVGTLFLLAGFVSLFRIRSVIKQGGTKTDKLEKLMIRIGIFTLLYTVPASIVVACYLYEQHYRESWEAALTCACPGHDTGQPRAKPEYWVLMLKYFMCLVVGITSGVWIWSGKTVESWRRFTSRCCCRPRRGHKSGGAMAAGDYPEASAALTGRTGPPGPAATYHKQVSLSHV

CSCC[C@H](NC(=O)CNC(=O)[C@H](CCC(=O)O)NC(=O)[C@H](CO)NC(=O)[C@@H](NC(=O)[C@H](CCCCN)NC(=O)[C@H](CC(N)=O)NC(=O)[C@H](CS)NC(C)=O)[C@@H](C)O)C(=O)N[C@@H](CC(=O)O)C(=O)NCC(=O)N[C@@H](CS)C(=O)N[C@@H](CCC(=O)O)C(=O)N[C@@H](CC(C)C)C(N)=O [UM206, Ac-Cys-Asn-Lys-Thr-Ser-Glu-Gly-Met-Asp-Gly-Cys-Glu-Leu-NH2] (Ac-CNKTSEGMDGCEL-NH2)
Antagonizing activation of mouse Fzd-1 by Wnt3a (mouse Fzd-1): fully effective | Blocking of canonical Wnt/Fzd-1/2 signaling in two other cell lines [1]: selectively block | Luciferase activity induced by the peptide by itself [2]: none of the three peptides by itself could induce an increase in luciferase activity | influence on gene expression in the kidney (kidney; UM206 for five weeks): These data indicate that UM206 had no influence on gene expression in the kidney. | Rel. exp. Col I (kidney; kidney): 1.39 | Rel. exp. DDK 1 (kidney; kidney): 1.87 | Rel. exp. DDK 2 (kidney; kidney): 1.44 | Rel. exp. DDK 3 (kidney; kidney): 0.87 | Rel. exp. FN (kidney; kidney): 1.66 | Rel. exp. LEF (kidney; kidney): 1.70 | Rel. exp. Twist (kidney; kidney): 1.49 | Rel. exp. α-SMA (kidney; kidney): 1.21 | Rel. exp. α-actin (kidney; kidney): 1.06 | Blocking of Wnt3a-induced luciferase activity, rFzd-1 (frizzled-1 (rFzd-1)): blocked almost completely; also recorded: abolished the induction of luciferase activity almost completely | half-life (Pharmacokinetics in rats): around 90 minutes | Higher affinity for rFzd-2 than for rFzd-1 (frizzled-2 (rFzd-2)): ~100 fold | Selectivity frizzled-2 over frizzled-1 (frizzled-2 (rFzd-2)): slightly more selective for frizzled-2 over frizzled-1 | Blocking of Wnt3a-induced luciferase activity, frizzled-2 (frizzled-2 (rFzd-2); increasing amounts of antagonist): completely and concentration-dependently blocked | Blocking of Wnt3a-induced luciferase activity, rFzd-2 (frizzled-2 (rFzd-2); peptide 1.10^−8 M): blocked almost completely; also recorded: abolished the induction of luciferase activity almost completely | Effect of the antagonist on its own on luciferase activity (frizzled-2 (rFzd-2); without Wnt3a): no effect | Antagonizing activation of human Fzd-1 by Wnt3a (human Fzd-1): fully effective | number of ruptured infarcts (129S6 mice): did not reduce the number of ruptured infarcts | Effect on Wnt3a-induced luciferase activity, frizzled-5 (hFzd-5): no effect
